Measured values reported in PubChem BioAssay AID248 (DTP/NCI, 2004).
“And” between values parts separate entries of the source, which are not always exact repeats. Identical values can stand only once. Toxic doses and inconclusive results are not listed.

Test system: L1210 leukemia ip in BDF1 mice, survival T/C
Experiment: NCI In Vivo Anticancer Drug Screen. Data for tumor model L1210 Leukemia (intraperitoneal) in B6D2F1 (BDF1) mice
Settings: endpoint: mean survival time, higher = longer survival
Outline: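 Mice bearing the transplanted tumor received compound or vehicle. Survival of the treated group was divided by that of the vehicle-treated control group to give the ratio.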

[1] = dose: 100.0 mg/kg/injection, schedule: Q04DX003 (ip), vehicle: saline
[2] = dose: 200.0 mg/kg/injection, schedule: Q01DX009 (ip), vehicle: saline
[3] = dose: 200.0 mg/kg/injection, schedule: Q04DX003 (ip), vehicle: saline
[4] = dose: 400.0 mg/kg/injection, schedule: Q04DX003 (ip), vehicle: saline
[5] = dose: 50.0 mg/kg/injection, schedule: Q01DX009 (ip), vehicle: saline with Tween-80
[6] = dose: 50.0 mg/kg/injection, schedule: Q04DX003 (ip), vehicle: saline with Tween-80
[7] = dose: 100.0 mg/kg/injection, schedule: Q01DX009 (ip), vehicle: saline with Tween-80
[8] = dose: 100.0 mg/kg/injection, schedule: Q04DX003 (ip), vehicle: saline with Tween-80
[9] = dose: 200.0 mg/kg/injection, schedule: Q01DX009 (ip), vehicle: saline with Tween-80
[10] = dose: 200.0 mg/kg/injection, schedule: Q04DX003 (ip), vehicle: saline with Tween-80
[11] = dose: 400.0 mg/kg/injection, schedule: Q04DX003 (ip), vehicle: saline with Tween-80
[12] = dose: 100.0 mg/kg/injection, schedule: Q01DX001 (ip), vehicle: saline
[13] = dose: 200.0 mg/kg/injection, schedule: Q01DX001 (ip), vehicle: saline
[14] = dose: 400.0 mg/kg/injection, schedule: Q01DX001 (ip), vehicle: saline
[15] = dose: 100.0 mg/kg/injection, schedule: Q01DX009 (ip), vehicle: Klucel (hydroxypropylcellulose) (HPC)
[16] = dose: 200.0 mg/kg/injection, schedule: Q01DX009 (ip), vehicle: Klucel (hydroxypropylcellulose) (HPC)
[17] = dose: 400.0 mg/kg/injection, schedule: Q01DX009 (ip), vehicle: Klucel (hydroxypropylcellulose) (HPC)

Structure (SMILES): CC(=O)NCC1CCC(CNC(C)=O)CC1 (centres undefined)
- T/C (dose: 100.0 mg/kg/injection, schedule: Q01DX009 (ip), vehicle: saline): 103 % of control
- T/C [1]: 100 % of control
- T/C [2]: 107 % of control
- T/C [3]: 105 % of control
- T/C (dose: 400.0 mg/kg/injection, schedule: Q01DX009 (ip), vehicle: saline): 95 % of control
- T/C [4]: 100 % of control

Structure (SMILES): CSc1nc2ncnn2c(=O)[nH]1
- T/C (dose: 50.0 mg/kg/injection, schedule: Q04DX003 (ip), vehicle: saline): 96 % of control
- T/C [1]: 94 % of control
- T/C [3]: 100 % of control
- T/C [4]: 92 % of control

Structure (SMILES): CCc1nc2c(OC)ccc(OC)c2nc1C
- T/C (dose: 75.0 mg/kg/injection, schedule: Q01DX001 (ip), vehicle: other): 96 % of control
- T/C (dose: 150.0 mg/kg/injection, schedule: Q01DX001 (ip), vehicle: other): 96 % of control

Structure (SMILES): O=C1Nc2ccc(C(=O)O)c(O)c2C1=O
- T/C (dose: 50.0 mg/kg/injection, schedule: Q01DX001 (ip), vehicle: Klucel (hydroxypropylcellulose) (HPC)): 112 % of control
- T/C (dose: 100.0 mg/kg/injection, schedule: Q01DX001 (ip), vehicle: Klucel (hydroxypropylcellulose) (HPC)): 112 % of control
- T/C (dose: 200.0 mg/kg/injection, schedule: Q01DX001 (ip), vehicle: Klucel (hydroxypropylcellulose) (HPC)): 102 % of control

Structure (SMILES): O=C1c2ccccc2C(=O)N1C1CCC(O)CC1 (centres undefined)
- T/C (dose: 25.0 mg/kg/injection, schedule: Q01DX009 (ip), vehicle: saline with Tween-80): 101 % of control
- T/C (dose: 25.0 mg/kg/injection, schedule: Q04DX003 (ip), vehicle: saline with Tween-80): 107 % of control
- T/C [5]: 93 % of control
- T/C [6]: 102 % of control
- T/C (dose: 100.0 mg/kg/injection, schedule: Q01DX001 (ip), vehicle: saline with Tween-80): 103 % of control
- T/C [7]: 103 % of control
- T/C [8]: 102 % of control

Structure (SMILES): O=S1(=O)CC(Cl)C1
- T/C (dose: 50.0 mg/kg/injection, schedule: Q01DX001 (ip), vehicle: carboxymethylcellulose (CMC)): 107 % of control
- T/C (dose: 100.0 mg/kg/injection, schedule: Q01DX001 (ip), vehicle: carboxymethylcellulose (CMC)): 89 % of control
- T/C (dose: 200.0 mg/kg/injection, schedule: Q01DX001 (ip), vehicle: carboxymethylcellulose (CMC)): 97 % of control

Structure (SMILES): COC(OC)c1[nH]c(=S)[nH]c(=O)c1Cc1ccc(C)c(C)c1
- T/C [7]: 104 % of control
- T/C [8]: 94 % of control
- T/C [9]: 96 % of control
- T/C [10]: 96 % of control
- T/C (dose: 400.0 mg/kg/injection, schedule: Q01DX009 (ip), vehicle: saline with Tween-80): 87 % of control
- T/C [11]: 100 % of control

Structure (SMILES): CCCCCC/C=C/C=C/C(C)C
- T/C (dose: 75.0 mg/kg/injection, schedule: Q01DX001 (ip), vehicle: saline): 95 % of control
- T/C (dose: 75.0 mg/kg/injection, schedule: Q04DX003 (ip), vehicle: saline): 104 % of control
- T/C (dose: 150.0 mg/kg/injection, schedule: Q01DX001 (ip), vehicle: saline): 101 % of control
- T/C (dose: 150.0 mg/kg/injection, schedule: Q04DX003 (ip), vehicle: saline): 102 % of control
- T/C (dose: 300.0 mg/kg/injection, schedule: Q01DX001 (ip), vehicle: saline): 105 % of control
- T/C (dose: 300.0 mg/kg/injection, schedule: Q04DX003 (ip), vehicle: saline): 100 % of control

Structure (SMILES): Cc1cc(N=CN(C)C)c2ccccc2n1
- T/C (dose: 25.0 mg/kg/injection, schedule: Q01DX001 (ip), vehicle: saline with Tween-80): 102 % of control
- T/C (dose: 50.0 mg/kg/injection, schedule: Q01DX001 (ip), vehicle: saline with Tween-80): 101 % of control
- T/C [6]: 108 % of control
- T/C [8]: 98 % of control

Structure (SMILES): CNC(=O)NS(=O)(=O)c1ccc(Cl)cc1
- T/C (dose: 100.0 mg/kg/injection, schedule: Q04DX002 (ip), vehicle: saline with Tween-80): 97 % of control and 102 % of control
- T/C [8]: 103 % of control and 105 % of control
- T/C (dose: 200.0 mg/kg/injection, schedule: Q04DX002 (ip), vehicle: saline with Tween-80): 98 % of control and 91 % of control
- T/C [10]: 94 % of control and 101 % of control
- T/C (dose: 400.0 mg/kg/injection, schedule: Q04DX002 (ip), vehicle: saline with Tween-80): 97 % of control and 98 % of control
- T/C [11]: 115 % of control and 90 % of control

Structure (SMILES): O=C(OCCl)c1ccc(Cl)cc1Cl
- T/C [8]: 87 % of control
- T/C [11]: 88 % of control

Structure (SMILES): CCOC(=O)c1cnc(SC)nc1Nc1cccc(C(F)(F)F)c1
- T/C (dose: 50.0 mg/kg/injection, schedule: Q01DX001 (ip), vehicle: gum acacia): 96 % of control
- T/C (dose: 87.0 mg/kg/injection, schedule: Q01DX009 (ip), vehicle: gum acacia): 100 % of control
- T/C (dose: 100.0 mg/kg/injection, schedule: Q01DX001 (ip), vehicle: gum acacia): 89 % of control and 90 % of control
- T/C (dose: 175.0 mg/kg/injection, schedule: Q01DX009 (ip), vehicle: gum acacia): 99 % of control
- T/C (dose: 200.0 mg/kg/injection, schedule: Q01DX001 (ip), vehicle: gum acacia): 89 % of control
- T/C (dose: 350.0 mg/kg/injection, schedule: Q01DX009 (ip), vehicle: gum acacia): 94 % of control
- T/C (dose: 400.0 mg/kg/injection, schedule: Q01DX001 (ip), vehicle: gum acacia): 99 % of control

Structure (SMILES): O=NN(Cc1ccccc1)Cc1ccccc1
- T/C (dose: 50.0 mg/kg/injection, schedule: Q01DX001 (ip), vehicle: saline): 104 % of control
- T/C [12]: 102 % of control
- T/C [13]: 98 % of control
- T/C [14]: 104 % of control

Structure (SMILES): COC(=O)c1cn[nH]c1/N=N/N(C)C
- T/C (dose: 25.0 mg/kg/injection, schedule: Q01DX009 (ip), vehicle: other): 120 % of control
- T/C (dose: 58.0 mg/kg/injection, schedule: Q01DX009 (ip), vehicle: other): 156 % of control
- T/C (dose: 88.0 mg/kg/injection, schedule: Q01DX009 (ip), vehicle: other): 163 % of control
- T/C [12]: 107 % of control
- T/C (dose: 133.0 mg/kg/injection, schedule: Q01DX009 (ip), vehicle: saline): 155 % of control
- T/C [13]: 120 % of control
- T/C [2]: 156 % of control
- T/C [14]: 122 % of control

Structure (SMILES): CCCCOc1ccc(OC(=O)Nc2ccc(C(=O)OCC)cc2)cc1
- T/C [15]: 98 % of control
- T/C [16]: 95 % of control
- T/C [17]: 97 % of control

Structure (SMILES): CC(=O)NS(=O)(=O)c1ccc(NC(=O)c2ccccc2C(=O)O)cc1
- T/C [5]: 102 % of control
- T/C [7]: 100 % of control
- T/C [8]: 95 % of control
- T/C [9]: 96 % of control
- T/C [10]: 93 % of control

Structure (SMILES): O=C(N/N=C/c1c[nH]c2ccccc12)C1CCCO1 (centres undefined)
- T/C [15]: 98 % of control
- T/C [16]: 98 % of control
- T/C [17]: 94 % of control

Structure (SMILES): COc1ccccc1NC(=O)Nc1c(C)cc(C)cc1C
- T/C (dose: 100.0 mg/kg/injection, schedule: Q04DX003 (ip), vehicle: Klucel (hydroxypropylcellulose) (HPC)): 95 % of control
- T/C [16]: 90 % of control
- T/C (dose: 200.0 mg/kg/injection, schedule: Q04DX003 (ip), vehicle: Klucel (hydroxypropylcellulose) (HPC)): 88 % of control
- T/C [17]: 95 % of control
- T/C (dose: 400.0 mg/kg/injection, schedule: Q04DX003 (ip), vehicle: Klucel (hydroxypropylcellulose) (HPC)): 91 % of control
